{"source": "paper PMC11211543", "about": "“Molecular mimicry of SARS-COV-2 antigens as a possible natural anti-cancer preventive immunization” (Frontiers in Immunology, 2024)", "key": {"[1]": {"tested_on": "CD3+/CD8+ T cells of PBMCs from vaccinated donors", "assay_type": "cell-based, human", "details": "for percentage of circulating reacting CD8+ T cells specific to the spike peptide, average: PBMCs from 7 vaccinated donors stimulated ex vivo 3 days with the Spike peptide, Dextramer loaded with the same viral peptide; for sum of the reactivities of all subjects for the epitope pair: value of the pair viral epitope/TAA; for percentage of circulating reacting CD8+ T cells specific to the homologous TAA epitope, average: TAAs paired to non-spike epitopes"}, "[2]": {"tested_on": "PBMCs from HLA-A*02:01–positive individuals", "experiment": "IFN-γ ELISpot assay", "assay_type": "cell-based, human", "details": "10 μg/mL peptide, 3×10^5 PBMCs per well, 20 hours, 37°C; SFU per 10^6 PBMCs; mean of subjects, triplicate tests averaged"}, "[3]": {"tested_on": "CD3+/CD8+ T cells of PBMCs from healthy vaccinated donors", "experiment": "pMHC multimer (tetramer) T cell staining", "assay_type": "cell-based, human", "details": "MHC-class I tetramer staining"}, "CD8+ T cell": {"tested_on": "CD8+ T cell", "details": "59 Spike epitopes, different HLA alleles; cited from earlier work", "description": "We have recently assessed T cell reactivity against 59 epitopes predicted in the Spike protein associated to different HLA alleles, covering both the S1 and S2 subunits. In particular, 11 were associated with the HLA-A*02:01 and only three were located in the S1 subunit, namely […] at position 62 and […] at position 269 in the NTD region; […] at position 512 in the RBD region."}}}
{"sequence": "VLNDIFSRL", "values": [{"measurement": "percentage of circulating reacting CD8+ T cells specific to the spike peptide, average", "setting": "[1]", "result": 1.04, "unit": "%"}]}
{"sequence": "KIADYNYKL [Wuhan, Alpha, Delta]", "values": [{"measurement": "IFN-γ ELISpot, average over subjects", "setting": "[2]", "result": 9.8, "unit": "SFU"}, {"measurement": "percentage of circulating CD8+ T cells specific for the peptide, average", "setting": "[3]", "result": "0,18%"}]}
{"sequence": "RLLQETELV [reference compound]", "values": [{"measurement": "sum of the reactivities of all subjects for the epitope pair", "setting": "[1]", "result": "~ 6 % of the total circulating T cells"}]}
{"sequence": "KLLEEWNLV", "values": [{"measurement": "sum of the reactivities of all subjects for the epitope pair", "setting": "[1]", "result": "~ 6 % of the total circulating T cells"}]}
{"sequence": "ALLALTSAV [reference compound]", "values": [{"measurement": "percentage of circulating reacting CD8+ T cells specific to the homologous TAA epitope, average", "setting": "[1]", "result": 1.34, "unit": "%"}, {"measurement": "sum of the reactivities of all subjects for the epitope pair", "setting": "[1]", "result": "> 9 % of the total circulating T cells"}]}
{"sequence": "LTDEMIAQY [reference compound]", "values": [{"measurement": "IFN-γ ELISpot, average over subjects", "setting": "[2]", "result": 10.8, "unit": "SFU"}]}
{"sequence": "HLMSFPQSA", "values": [{"measurement": "percentage of circulating reacting CD8+ T cells specific to the spike peptide, average", "setting": "[1]", "result": 0.8, "unit": "%"}]}
{"sequence": "VLLSMQGAV", "values": [{"measurement": "sum of the reactivities of all subjects for the epitope pair", "setting": "[1]", "result": "> 9 % of the total circulating T cells"}]}
{"sequence": "FVGEFFTDV [reference compound]", "values": [{"measurement": "percentage of circulating reacting CD8+ T cells specific to the homologous TAA epitope, average", "setting": "[1]", "result": 0.36, "unit": "%"}]}
{"sequence": "NYNYLYRLF [reference compound]", "values": [{"measurement": "immunodominance of CD8+ T cell memory response", "setting": "CD8+ T cell", "result": "strongest immunodominance"}]}
{"sequence": "YLQPRTFLL", "values": [{"measurement": "IFN-γ ELISpot, average over subjects", "setting": "[2]", "result": 87.9, "unit": "SFU"}, {"measurement": "percentage of circulating CD8+ T cells specific for the peptide, average", "setting": "[3]", "result": "1,23%"}, {"measurement": "immunodominance of CD8+ T cell memory response", "setting": "CD8+ T cell", "result": "strongest immunodominance"}]}
